US7718651B2, “Inhibitors of FtsZ and uses thereof” (priority 2002, dated 2010)
Values after ≈ are worked out from the molar mass of the structure shown. Like-named read-outs stand apart in the source and are kept apart here.

Test system: single drug resistant strains of M. tuberculosis
Test: microbe, parasite or virus in culture
Format: cell-based
Details: for MIC: Mycobacterium tuberculosis

SMILES | susceptibility of singly resistant strains | MIC (read-out: MIC, CS-R) [µg/mL] | MIC (read-out: MIC, EMB-R) [µg/mL] | MIC (read-out: MIC, INH-R) [µg/mL] | MIC (read-out: MIC, KM-R) [µg/mL] | MIC (read-out: MIC, PZA-R) [µg/mL] | MIC (read-out: MIC, RMP-R) [µg/mL] | MIC (read-out: MIC, TAC-R) [µg/mL]
CCOC(=O)Nc1cc2c(c(N)n1)N=C(c1ccccc1)CCN2 [SRI-7614, (1-Amino-8-phenyl-6,7-dihydro-5H-2,5,9-triaza-benzocyclohepten-3-yl)-carbamic acid ethyl ester] | uniformly susceptible | 3.12 (≈ 9.59 µM) | 3.12 (≈ 9.59 µM) | 6.25 (≈ 19.2 µM) | 6.25 (≈ 19.2 µM) | 3.12 (≈ 9.59 µM) | 3.12 (≈ 9.59 µM) | 3.12 (≈ 9.59 µM)
CCOC(=O)Nc1cc(NC(C)CCCN(CC)CC)c2nc(-c3ccccc3)c(-c3ccccc3)nc2n1 (stereo not shown) [SRI-3072, [8-(4-Diethylamino-1-methyl-butylamino)-2,3-diphenyl-pyrido[2,3-b]pyrazin-6-yl]-carbamic acid ethyl ester] | uniformly susceptible |  | ≤ 0.1 | 0.78 (≈ 1.48 µM) | ≤ 0.1 |  | ≤ 0.1 | 
